Test results: PMC8815882, “Screening the pandemic response box identified benzimidazole carbamates, Olorofim and ravuconazole as promising drug candidates for the treatment of eumycetoma” (PLoS Neglected Tropical Diseases, 2022)
Where two headings read alike, the source gives them in different places.

Test system: M. mycetomatis genome strain MM55
Assay: CLSI M38-A2 based in vitro susceptibility screening (XTT or resazurin), growth at fixed concentration
Format: cell-based, Madurella mycetomatis
Details: Madurella mycetomatis
[1] = 25 uM, mean of replicates, MM55, read-out: Percentage survival at 25um, 25 uM mean
[2] = 25 uM, replicate A, MM55, read-out: Percentage survival at 25um, 25 um A
[3] = 25 uM, replicate B, MM55, read-out: Percentage survival at 25um, 25 uM B
[4] = 25 uM, replicate C, MM55, read-out: Percentage survival at 25um, 25 uM C
[5] = 100 uM, mean of replicates, MM55, read-out: Percentage survival at 100um, 100 uM mean
[6] = 100 uM, replicate 1, MM55, read-out: Percentage survival at 100um, 100 uM A
[7] = 100 uM, replicate 2, MM55, read-out: Percentage survival at 100um, 100 uM A
[8] = 100 uM, replicate 3, MM55, read-out: Percentage survival at 100um, 100 uM A
[9] = 25 uM, mean of three replicates, read-out: Percentage survival at 25um, 25 uM mean
[10] = 25 uM, replicate A, read-out: Percentage survival at 25um, 25 um A
[11] = 25 uM, replicate B, read-out: Percentage survival at 25um, 25 uM B
[12] = 25 uM, replicate C, read-out: Percentage survival at 25um, 25 uM C
[13] = 100 uM, mean of three replicates, read-out: Percentage survival at 100um, 100 uM mean
[14] = 100 uM, first replicate column, read-out: Percentage survival at 100um, 100 uM A
[15] = 100 uM, second replicate column, read-out: Percentage survival at 100um, 100 uM A
[16] = 100 uM, third replicate column, read-out: Percentage survival at 100um, 100 uM A
[17] = 25 uM, mean of replicates, read-out: Percentage survival at 25um, 25 uM mean
[18] = 100 uM, mean of replicates, read-out: Percentage survival at 100um, 100 uM mean
[19] = 100 uM, replicate 1, read-out: Percentage survival at 100um, 100 uM A
[20] = 100 uM, replicate 2, read-out: Percentage survival at 100um, 100 uM A
[21] = 100 uM, replicate 3, read-out: Percentage survival at 100um, 100 uM A
[22] = 25 uM, mean, read-out: Percentage survival at 25um, 25 uM mean
[23] = 100 uM, mean, read-out: Percentage survival at 100um, 100 uM mean
[24] = 100 uM, replicate (first column), read-out: Percentage survival at 100um, 100 uM A
[25] = 100 uM, replicate (second column), read-out: Percentage survival at 100um, 100 uM A
[26] = 100 uM, replicate (third column), read-out: Percentage survival at 100um, 100 uM A

SMILES	activity at 25 µM [9] [%]	activity at 25 µM [10] [%]	activity at 25 µM [11] [%]	activity at 25 µM [12] [%]	activity at 100 µM [13] [%]	activity at 100 µM [14] [%]	activity at 100 µM [15] [%]	activity at 100 µM [16] [%]	further results
CNC(=O)C1O[C@@H](n2cnc3c(NCc4cccc(I)c4)nc(Cl)nc32)[C@H](O)[C@@H]1O (stereo partly shown) [MMV1593514]									activity at 25 µM [1]: 94.9%; activity at 25 µM [2]: 85.8%; activity at 25 µM [3]: 83.7%; activity at 25 µM [4]: 115%; activity at 100 µM [5]: 80.9%; activity at 100 µM [6]: 74.5%; activity at 100 µM [7]: 99.3%; activity at 100 µM [8]: 68.9%
CCOC(=O)N[C@@H]1CC[C@@H]2[C@@H](C1)C[C@H]1C(=O)O[C@H](C)[C@H]1[C@H]2/C=C/c1ccc(-c2cccc(F)c2)cn1 [MMV1593515]	69.2	68.2	80.3	59.1	72.9				activity at 100 µM (100 uM, replicate 1, read-out: Percentage survival at 100um, 100 uM A (first replicate column)): 71.5%; Percent fungal survival at 100 µM (100 uM, replicate 2, read-out: Percentage survival at 100um, 100 uM A (second replicate column)): 65.2%; activity at 100 µM (100 uM, replicate 3, read-out: Percentage survival at 100um, 100 uM A (third replicate column)): 82%
O=C(O)[C@H]1C2CCC(CC2)[C@@H]1Nc1nc(-c2c[nH]c3ncc(F)cc23)ncc1F [MMV1593516]	97.3	98.8	105	88.2	98.7	107	103	86.5	
O=C(/C=C/n1cnc(-c2cc(C(F)(F)F)cc(C(F)(F)F)c2)n1)NNc1cnccn1 [MMV1593517]	90.4	63	118	90.3	102	102	111	95	
C[C@@]1(O)[C@H](O)[C@@H](CO)O[C@H]1n1ccc2c(N)ncnc21 [MMV1593519]	94.2	94.4	105	83.4	86.2	80.2	92.3	86.2	
[N-]=[N+]=N[C@H]1C[C@H](n2ccc(=O)[nH]c2=O)O[C@@H]1CO [MMV1593520]		94.3			87	91.5	80.1	89.4	activity at 25 µM (read-out: Percentage survival at 25um, 25 uM B): 107%; activity at 25 µM (read-out: Percentage survival at 25um, 25 uM C): 100%; activity at 25 µM (read-out: Percentage survival at 25um, 25 uM mean): 100%
CC(C)Nc1nc2cc(Cl)c(Cl)cc2n1[C@H]1O[C@@H](CO)[C@H](O)[C@@H]1O [MMV1593521]									activity at 25 µM [1]: 93.6%; activity at 25 µM [2]: 104%; activity at 25 µM [3]: 89.6%; activity at 25 µM [4]: 87%; activity at 100 µM [5]: 81.8%; activity at 100 µM [6]: 90.8%; activity at 100 µM [7]: 82%; activity at 100 µM [8]: 72.5%
O=C(Nc1ccc(-c2ccccc2)cc1)C1=C(O)C(Cc2ccccc2)OC1=O (stereo not shown) [MMV1593531]		71.9	72	74.7					activity at 25 µM [17]: 72.9%; activity at 100 µM [18]: 74.5%; activity at 100 µM [19]: 74.2%; activity at 100 µM [20]: 70.8%; activity at 100 µM [21]: 78.4%
O=C(Nc1ncc(Cc2cccc3ccccc23)s1)C1CCCCC1 [MMV1593532]		93.7	94.5	88					activity at 25 µM [17]: 92.1%; activity at 100 µM [18]: 93.9%; activity at 100 µM [19]: 107%; activity at 100 µM [20]: 89%; activity at 100 µM [21]: 85.1%
C[C@H]1[C@@H](c2cccc(C(F)(F)F)c2)OC(=O)N1C(=O)NCc1cncc2ccccc12 [MMV1593533]		54.1	42.5	53.3					activity at 25 µM [22]: 50%; activity at 100 µM [23]: 36.1%; activity at 100 µM [24]: 6.17%; activity at 100 µM [25]: 44.6%; activity at 100 µM [26]: 57.6%
CCNC(=O)Nc1cc(-c2ccccc2)c(-c2cncc(C(=O)O)c2)cn1 [MMV1593534]		94.2	90.1	72.5					activity at 25 µM [22]: 85.6%; activity at 100 µM [23]: 53.4%; activity at 100 µM [24]: 4.59%; activity at 100 µM [25]: 76.9%; activity at 100 µM [26]: 78.8%
